For eight molecules, GI50 and TGI results are on record in PubChem BioAssay (NCI).

Some test systems named below: MALME-3M melanoma; MDA-MB-231 breast; NCI-H23 lung; NCI-H460 lung; OVCAR-5 ovarian; SF-268 CNS; SK-MEL-2 melanoma; SK-OV-3 ovarian; TK-10 renal; UACC-62 melanoma.
Experiment in all cases: NCI tumour cell line growth inhibition, 48 h

Values joined by “and” are separate entries in the source; they are usually repeats but may differ in a detail not shown here. Equal values may be shown once.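 In this assay, cells in 96-well plates receive the compound at five concentrations for 48 hours. Endpoints are linearly interpolated between the surrounding concentrations. GI50 is the concentration that inhibits growth by half. TGI is the concentration that stops growth completely.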

For `COc1nc(C)cc2c(=O)n(-c3ccccc3)n(CC(O)CN3CCN(c4ccc(Cl)cc4)CC3)c(=O)c12` (stereo not drawn), the GI50 was more than 50 µM in the assay on MALME-3M melanoma; more than 50 µM in the assay with MDA-MB-231 breast; more than 50 µM with NCI-H23 lung; more than 50 µM in the assay with NCI-H460 lung; more than 50 µM in the assay on OVCAR-5 ovarian; 24.8 µM in the assay on SF-268 CNS. The GI50 in the assay on SK-MEL-2 melanoma is 43.1 µM; with SK-OV-3 ovarian, 22.3 µM; in the assay on TK-10 renal it was more than 50 µM; in the assay with UACC-62 melanoma, 46.6 µM. Besides, the TGI in the assay with MALME-3M melanoma, in the assay with MDA-MB-231 breast, in the assay on NCI-H23 lung, in the assay with NCI-H460 lung, in the assay with OVCAR-5 ovarian and with SF-268 CNS was more than 50 µM in each case. Besides, the TGI in the assay with SK-MEL-2 melanoma, in the assay with SK-OV-3 ovarian, in the assay with TK-10 renal and in the assay on UACC-62 melanoma was more than 50 µM each time.

For `Cc1cc(=O)oc2cc(OC(=O)N(CCCl)CCCl)ccc12`, the TGI with MALME-3M melanoma, in the assay on MDA-MB-231 breast, in the assay on NCI-H23 lung, in the assay on NCI-H460 lung, with OVCAR-5 ovarian and in the assay with SF-268 CNS was more than 100 µM throughout. Moreover, the TGI with SK-MEL-2 melanoma, in the assay with SK-OV-3 ovarian, in the assay with TK-10 renal and in the assay with UACC-62 melanoma was more than 100 µM each time.

`COc1cc2ncnc3c2cc1OCCCCCN(C)Cc1ccc(Br)cc1N3`: the GI50 in the assay on MALME-3M melanoma is 1.47 µM and 6.85 µM; with MDA-MB-231 breast, 10.6 µM and 7.51 µM; in the assay on NCI-H23 lung, 40.8 µM and > 10 µM; with NCI-H460 lung, 3.44 µM and 1.27 µM; in the assay with OVCAR-5 ovarian it was 12.9 µM and 1.87 µM; in the assay on SF-268 CNS it was 29.5 µM and 4.01 µM. For the same molecule, the GI50 in the assay with SK-MEL-2 melanoma was 6.37 µM and 2.2 µM; in the assay on SK-OV-3 ovarian, 0.315 µM; in the assay on TK-10 renal, 0.186 µM and 0.166 µM; in the assay on UACC-62 melanoma, 2.35 µM and 0.969 µM. Besides, the TGI in the assay on MALME-3M melanoma was 23.3 µM and > 10 µM; in the assay on MDA-MB-231 breast, 50.9 µM and > 10 µM; in the assay with NCI-H23 lung it was more than 100 µM; in the assay on NCI-H460 lung it was more than 100 µM; with OVCAR-5 ovarian it was more than 100 µM; in the assay with SF-268 CNS it was more than 100 µM. Further, the TGI in the assay on SK-MEL-2 melanoma is more than 100 µM; in the assay with SK-OV-3 ovarian it was 1.09 µM; in the assay with TK-10 renal it was more than 100 µM; in the assay with UACC-62 melanoma, more than 100 µM.

For the molecule `Oc1c(CN2CCCC2)cc(CSCc2ccccc2)c2cccnc12`, the GI50 is 2.04 µM in the assay on MALME-3M melanoma; 0.987 µM with MDA-MB-231 breast; 1.31 µM in the assay on NCI-H23 lung; 0.498 µM in the assay on NCI-H460 lung; 4.51 µM in the assay on OVCAR-5 ovarian; 0.752 µM with SF-268 CNS. Further, the GI50 in the assay on SK-MEL-2 melanoma is 1.86 µM; in the assay on SK-OV-3 ovarian, 0.666 µM; in the assay on TK-10 renal, 0.775 µM; in the assay on UACC-62 melanoma, 0.363 µM. For the same molecule, the TGI came to 9.06 µM in the assay with MALME-3M melanoma; 12.2 µM in the assay on MDA-MB-231 breast; 5.12 µM in the assay on NCI-H23 lung; 2.83 µM in the assay with NCI-H460 lung; 17.1 µM with OVCAR-5 ovarian; 14.9 µM with SF-268 CNS. The TGI in the assay with SK-MEL-2 melanoma was 7.21 µM; in the assay on SK-OV-3 ovarian, 2.82 µM; in the assay with TK-10 renal, 13.1 µM; in the assay with UACC-62 melanoma it was 2.29 µM.

For the molecule `CC[C@@]12C=CCN3CC[C@]4(c5cc(NC(=O)COc6cc(OCC(=O)Nc7cc8c(cc7OC)N(C)[C@H]7[C@@](O)(C(=O)OC)[C@H](OC(C)=O)[C@]9(CC)C=CCN%10CC[C@]87[C@@H]%109)cc7oc(-c8ccccc8)cc(=O)c67)c(OC)cc5N(C)[C@@H]4[C@](O)(C(=O)OC)[C@H]1OC(C)=O)[C@H]32`, the GI50 is more than 100 µM with MALME-3M melanoma; 2.68 µM with MDA-MB-231 breast; 2.15 µM in the assay with NCI-H23 lung; 2.55 µM with NCI-H460 lung; 3.76 µM in the assay with OVCAR-5 ovarian; 43.5 µM in the assay on SK-MEL-2 melanoma. In addition, the GI50 in the assay on SK-OV-3 ovarian is 6.49 µM; in the assay with TK-10 renal, 12.3 µM; with UACC-62 melanoma it was 20.1 µM. Further, the TGI in the assay on MALME-3M melanoma is more than 100 µM; with MDA-MB-231 breast it was 9.08 µM; in the assay on NCI-H23 lung it was 6.58 µM; with NCI-H460 lung it was 7.15 µM; with OVCAR-5 ovarian, 48.2 µM; in the assay with SK-MEL-2 melanoma it was more than 100 µM. Further, the TGI was 19.7 µM with SK-OV-3 ovarian, 61.7 µM with TK-10 renal and 64.6 µM with UACC-62 melanoma.

`COc1ccc(NC(=O)n2nc(/C=C\c3ccc(O)c(OC)c3)cc2/C=C\c2ccc(O)c(OC)c2)cc1`: the GI50 was 3.66 µM with MALME-3M melanoma; 4.94 µM in the assay with MDA-MB-231 breast; 3.81 µM in the assay on NCI-H23 lung; 4.24 µM in the assay on NCI-H460 lung; 18.8 µM in the assay with OVCAR-5 ovarian; 3.21 µM in the assay with SF-268 CNS. Moreover, the GI50 in the assay on SK-MEL-2 melanoma is 3.23 µM; in the assay with SK-OV-3 ovarian, 3.66 µM; in the assay on TK-10 renal it was 10.2 µM; in the assay with UACC-62 melanoma, 2.14 µM. The TGI with MALME-3M melanoma was 38.6 µM; in the assay on MDA-MB-231 breast it was 83.5 µM; in the assay on NCI-H23 lung it was 63.8 µM; with NCI-H460 lung, 31.4 µM; in the assay on OVCAR-5 ovarian, 54.1 µM; in the assay on SF-268 CNS, 36.4 µM. Also, the TGI in the assay with SK-MEL-2 melanoma came out at 18.1 µM; with SK-OV-3 ovarian, 27.5 µM; in the assay with TK-10 renal, 95.3 µM; in the assay on UACC-62 melanoma, 6.91 µM.

Turning to `CCOC(=O)c1c2c(n(Cc3ccccc3)c1C)-c1nc(Cc3ccccc3)[nH]c1C(=O)C2=O`, the GI50 in the assay on MALME-3M melanoma was 1.61 µM; with MDA-MB-231 breast, 1.37 µM; with NCI-H23 lung, 1.82 µM; in the assay on NCI-H460 lung it was 1.96 µM; in the assay with OVCAR-5 ovarian, 1.98 µM; in the assay on SF-268 CNS it was 1.91 µM. For the same molecule, the GI50 in the assay with SK-MEL-2 melanoma is 1.69 µM; in the assay on SK-OV-3 ovarian, 2.31 µM; in the assay on TK-10 renal, 1.48 µM; in the assay on UACC-62 melanoma, 1.74 µM. Moreover, the TGI is 3.26 µM with MALME-3M melanoma; 2.67 µM with MDA-MB-231 breast; 3.59 µM with NCI-H23 lung; 4.22 µM with NCI-H460 lung; 3.62 µM in the assay on OVCAR-5 ovarian; 4.59 µM with SF-268 CNS. Further, the TGI came out at 4.13 µM in the assay with SK-MEL-2 melanoma, 5.19 µM in the assay with SK-OV-3 ovarian, 3.08 µM with TK-10 renal and 3.55 µM in the assay on UACC-62 melanoma.

Take `Nc1nc(N)nc(CC(=O)O)n1`: the TGI in the assay on MALME-3M melanoma, with MDA-MB-231 breast, in the assay with NCI-H23 lung, in the assay on NCI-H460 lung, in the assay on OVCAR-5 ovarian and in the assay on SF-268 CNS was more than 100 µM throughout. Also, the TGI with SK-MEL-2 melanoma, in the assay with SK-OV-3 ovarian, with TK-10 renal and in the assay with UACC-62 melanoma was more than 100 µM throughout.
